This is an account of results in paper PMC10584170, “Machine learning-based phenotypic imaging to characterise the targetable biology of Plasmodium falciparum male gametocytes for the development of transmission-blocking antimalarials” (PLOS Pathogens, 2023).

Experiment [1] concerns P. falciparum male gametocytes. Nature of the experiment: P. falciparum Dual Gamete Formation Assay (PfDGFA), male readout (exflagellation). Type of experiment: cell-based, Plasmodium falciparum NF54. Particulars: for Average inhibition male (%): average of replicates; for % inhibition male (individual replicates) R1: replicate R1; for % inhibition male (individual replicates) R3: replicate R3; for % inhibition male (individual replicates) R4: replicate R4; for Activity: hit = >50% inhibition in male or female readout in at least 3 replicates, 0 = no class assigned. In short, it runs like this:
(§1)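 First, day-14 P. falciparum NF54 gametocytes receive compound for 24 h at 37°C in 1% O2/3% CO2. Next, ookinete medium with Cy3 anti-Pfs25 triggers gametogenesis at 28°C and male exflagellation is imaged. Finally, after 24 h in the dark, Cy3-labelled females are imaged.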

The test system of experiment [2] is P. falciparum female gametocytes. Nature of the experiment: P. falciparum Dual Gamete Formation Assay (PfDGFA), female readout (Pfs25-positive female gametes). Format: cell-based, Plasmodium falciparum NF54. The note with it: for Average inhibition female (%): average of replicates; for % inhibition female (individual replicates) R1: replicate R1; for % inhibition female (individual replicates) R3: replicate R3; for % inhibition female (individual replicates) R4: replicate R4. In short, it runs like this:
as §1

The mark [3] stands for this setting: 2µM, 24h preincubation with gametocytes prior to induction of gametogenesis.
The mark [4] stands for this setting: 2µM, 24h preincubation, hits selected on >50% inhibition in the male readout across replicates.
Setting [5] is: PfDGFA at 2µM, 24h preincubation.
[6] abbreviates: 2µM, 24h preincubation, hits selected on >50% inhibition in the female readout across replicates.
Setting [7] is: PfDGFA at 2µM, 24h preincubation with gametocytes.
Where [8] appears, read: number of replicates with >50% inhibition in the male readout, 2µM.
The mark [9] stands for this setting: number of replicates with >50% inhibition in the female readout, 2µM.
[10] abbreviates: 2µM, 24h preincubation, number of replicates with >50% inhibition in the male readout.
Setting [11] is: 2µM, 24h preincubation, number of replicates with >50% inhibition in the female readout.

The structures appear in SMILES notation.

Take `O=C(O)C(F)(F)F.O=S(=O)(NCCN1CCCC1)c1cccc(-c2ccc(CNC3Cc4ccccc4C3)cc2)c1` [TCMDC-132241]: in experiment [1] (setting [3]), the “Average inhibition male (%)” value is given as -1.0%, the “% inhibition male (individual replicates) R1” value is recorded as 15.7%, the “% inhibition male (individual replicates) R3” value is recorded as -7.3% and the “% inhibition male (individual replicates) R4” value is listed as -2.5%. Also, the HitlevelM in experiment [1] (setting [4]) is reported as 0. Moreover, in experiment [1] (setting [5]), the Activity amounted to 0. Also, in experiment [2] (setting [3]), the “Average inhibition female (%)” value is reported as 16.9%, the “% inhibition female (individual replicates) R1” value turned out to be 23.8%, the “% inhibition female (individual replicates) R3” value is reported as 3.4% and the “% inhibition female (individual replicates) R4” value was 2.0%. In addition, the HitlevelF in experiment [2] (setting [6]) was 0.

In the case of `COc1ccc(CNC2CCN(C)CC2)cc1-c1ccc(S(=O)(=O)NCc2ccccc2)cc1.O=C(O)C(F)(F)F` [TCMDC-132244], in experiment [1] (setting [7]), the “Average inhibition male (%)” value worked out at 63.1%, the “% inhibition male (individual replicates) R1” value is reported as 62.4%, the “% inhibition male (individual replicates) R3” value is reported as 51.6% and the “% inhibition male (individual replicates) R4” value is 78.9%. In experiment [1] (setting [8]), the HitlevelM came to 4. For the same compound, in experiment [2] (setting [7]), the “Average inhibition female (%)” value came out at 25.2%, the “% inhibition female (individual replicates) R1” value is on record as 21.6%, the “% inhibition female (individual replicates) R3” value came to 8.8% and the “% inhibition female (individual replicates) R4” value amounted to 45.4%. This compound also had a HitlevelF in experiment [2] (setting [9]) of 0.

On to `COc1ccc(CNC2CCN(C)CC2)cc1-c1ccc(S(=O)(=O)NC2CCC2)cc1.O=C(O)C(F)(F)F` [TCMDC-132245], for which, in experiment [1] (setting [3]), the “Average inhibition male (%)” value is reported as 51.4%, the “% inhibition male (individual replicates) R1” value stood at 59.0%, the “% inhibition male (individual replicates) R3” value amounted to 27.2% and the “% inhibition male (individual replicates) R4” value turned out to be 60.2%. This compound also had a HitlevelM in experiment [1] (setting [10]) of 3. In experiment [2] (setting [3]), the “Average inhibition female (%)” value was found to be 10.6%, the “% inhibition female (individual replicates) R1” value is 7.8%, the “% inhibition female (individual replicates) R3” value is recorded as -17.0% and the “% inhibition female (individual replicates) R4” value was found to be 30.9%. Also, in experiment [2] (setting [11]), the HitlevelF is 0.

For the compound `COc1ccc(CNC2Cc3ccccc3C2)cc1-c1ccc(OC)c(S(=O)(=O)NCCN2CCCC2)c1.O=C(O)C(F)(F)F` [TCMDC-132251], in experiment [1] (setting [3]), the “Average inhibition male (%)” value was -9.5%, the “% inhibition male (individual replicates) R1” value is recorded as -12.6%, the “% inhibition male (individual replicates) R3” value is -24.0% and the “% inhibition male (individual replicates) R4” value turned out to be 8.2%. In experiment [1] (setting [10]), this compound came in with a HitlevelM of 0. Also, in experiment [2] (setting [3]), the “Average inhibition female (%)” value was found to be 36.3%, the “% inhibition female (individual replicates) R1” value is listed as 26.7%, the “% inhibition female (individual replicates) R3” value was found to be 26.1% and the “% inhibition female (individual replicates) R4” value is 31.1%. The compound also registered a HitlevelF in experiment [2] (setting [11]) of 1.

As to `COc1ccc(CNC2CCN(C)CC2)cc1-c1ccc(S(=O)(=O)NC2CCC2)s1.O=C(O)C(F)(F)F` [TCMDC-132254], in experiment [1] (setting [3]), the “Average inhibition male (%)” value was 56.3%, the “% inhibition male (individual replicates) R1” value is reported as 57.2% and the “% inhibition male (individual replicates) R4” value stood at 49.8%. This compound registered a HitlevelM in experiment [1] (setting [4]) of 2. The compound further yielded an Activity in experiment [1] (setting [5]) of 0. In experiment [2] (setting [3]), the “Average inhibition female (%)” value was found to be 16.7%, the “% inhibition female (individual replicates) R1” value is 16.7%, the “% inhibition female (individual replicates) R3” value is 22.1% and the “% inhibition female (individual replicates) R4” value is recorded as 14.8%. In experiment [2] (setting [6]), this compound gave a HitlevelF of 0.

As to `COc1ccc(CNC2CCN(C)CC2)cc1-c1cccc(S(=O)(=O)NCc2ccccc2)c1.O=C(O)C(F)(F)F` [TCMDC-132267], in experiment [1] (setting [7]), the “Average inhibition male (%)” value was 67.3%, the “% inhibition male (individual replicates) R1” value turned out to be 62.4%, the “% inhibition male (individual replicates) R3” value worked out at 55.8% and the “% inhibition male (individual replicates) R4” value is listed as 79.6%. For the same compound, the HitlevelM in experiment [1] (setting [8]) turned out to be 4. Moreover, in experiment [2] (setting [7]), the “Average inhibition female (%)” value was determined as 16.9%, the “% inhibition female (individual replicates) R1” value is given as 27.9%, the “% inhibition female (individual replicates) R3” value came to 4.5% and the “% inhibition female (individual replicates) R4” value is 10.9%. In experiment [2] (setting [9]), the HitlevelF amounted to 0.
